Test results as given in PubChem BioAssay (NCI).
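Tested at 5 concentrations; 48 h exposure; 96-well plates; endpoints linearly interpolated, else capped at highest concentration. The concentration for 50% growth inhibition is given as GI50. TGI marks complete inhibition of growth.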

Tests used:
Test in all cases: NCI tumour cell line growth inhibition, 48 h
[1] = system: NCI-H23 lung
[2] = system: NCI-H460 lung
[3] = system: NCI-H522 lung
[4] = system: NCI/ADR-RES ovarian
[5] = system: OVCAR-3 ovarian
[6] = system: OVCAR-4 ovarian
[7] = system: OVCAR-5 ovarian
[8] = system: OVCAR-8 ovarian
[9] = system: PC-3 prostate
[10] = system: RPMI-8226 leukemia
[11] = system: RXF 393 renal
[12] = system: SF-268 CNS
[13] = system: SF-295 CNS
[14] = system: SF-539 CNS
[15] = system: SK-MEL-2 melanoma
[16] = system: SK-MEL-28 melanoma
[17] = system: SK-MEL-5 melanoma
[18] = system: SK-OV-3 ovarian
[19] = system: SN12C renal
[20] = system: SNB-19 CNS
[21] = system: SNB-75 CNS
[22] = system: SR leukemia
[23] = system: SW-620 colon
[24] = system: T-47D breast
[25] = system: TK-10 renal
[26] = system: U251 CNS
[27] = system: UACC-257 melanoma
[28] = system: UACC-62 melanoma
[29] = system: UO-31 renal

What does the source list for `O=C(CNc1c(Cl)cccc1Cl)Nc1ccc(-c2nc3ccccc3s2)cc1`?
GI50 [1]: 2.06 µM; TGI [1]: 4.58 µM; GI50 [2]: 2.69 µM; TGI [2]: 7.96 µM; GI50 [3]: 1.56 µM; TGI [3]: 3.61 µM; GI50 [4]: 3.22 µM; TGI [4]: 9.89 µM; GI50 [5]: 1.97 µM; TGI [5]: 3.73 µM; GI50 [6]: 1.95 µM; TGI [6]: 5.19 µM; GI50 [7]: 2.53 µM; TGI [7]: 7.79 µM; GI50 [8]: 3.01 µM; TGI [8]: > 29.8 µM; GI50 [9]: 1.66 µM; TGI [9]: 3.52 µM; GI50 [10]: 2.44 µM; TGI [10]: > 22.8 µM; GI50 [11]: 4.15 µM; TGI [11]: 9.73 µM; GI50 [12]: 2.4 µM; TGI [12]: 6.44 µM; GI50 [13]: 15.6 µM; TGI [13]: 30.2 µM; GI50 [14]: 1.88 µM; TGI [14]: 3.62 µM; GI50 [15]: 3.32 µM; TGI [15]: 12.4 µM; GI50 [16]: 2.61 µM; TGI [16]: 7.31 µM; GI50 [17]: 1.61 µM; TGI [17]: 3.3 µM; GI50 [18]: 9.11 µM; TGI [18]: 70.6 µM; GI50 [19]: 2.31 µM; TGI [19]: 7.1 µM; GI50 [20]: 3.14 µM; TGI [20]: 12.5 µM; GI50 [21]: 2.42 µM; TGI [21]: 8.22 µM; GI50 [22]: 0.797 µM; TGI [22]: > 23.1 µM; GI50 [23]: 2.2 µM; TGI [23]: 4.9 µM; GI50 [24]: 1.89 µM; TGI [24]: 5.37 µM; GI50 [25]: 2.04 µM; TGI [25]: 4.69 µM; GI50 [26]: 2.06 µM; TGI [26]: 4.65 µM; GI50 [27]: 4.27 µM; TGI [27]: 16.6 µM; GI50 [28]: 1.71 µM; TGI [28]: 3.87 µM; GI50 [29]: 3.62 µM; TGI [29]: 9.13 µM
